Source: patent US8642788B2, “Activators of executioner procaspases 3, 6 and 7” (The Regents of the University of California, priority 2008, dated 2014)
Where two headings read alike, the source gives them in different places.

Legend:
Format in all cases: biochemical
procaspase-7 = target: T1, procaspase-7 (Homo sapiens, UniProt P55210); test: Executioner procaspase-7 activation assay (Ac-DEVD-AFC fluorogenic substrate); conditions: incubation with compound for 5 h at 37° C.; 100 nM procaspase
T1 construct: His6 (C); made in house; host or cells: E. coli BL21(DE3)RP, pET-21b
T1 sequence (P55210 1-303): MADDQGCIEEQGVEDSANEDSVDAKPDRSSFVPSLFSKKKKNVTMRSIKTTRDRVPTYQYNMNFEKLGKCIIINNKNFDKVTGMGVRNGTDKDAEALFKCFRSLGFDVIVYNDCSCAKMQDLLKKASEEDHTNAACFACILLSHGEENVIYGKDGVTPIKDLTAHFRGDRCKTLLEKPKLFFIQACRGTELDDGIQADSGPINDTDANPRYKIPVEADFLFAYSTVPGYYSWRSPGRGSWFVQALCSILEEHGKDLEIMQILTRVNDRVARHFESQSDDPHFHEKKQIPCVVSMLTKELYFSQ
Experimental: (§1) The executioner procaspase-3, -6 and -7 activation assay protocol involves incubating the target protein at the physiologically-relevant concentration of 100 nM with activating compounds (ranging from 100 nM to 100 uM) in a total volume of 50 μL consisting of a reaction buffer of 50 mM HEPES, pH 7.4, 50 mM KCl, 1 mM DTT and 0.01% Triton-X100 (to reduce false positive hits due to compound aggregation). The procaspase/small molecule incubations are then agitated at 37° C. and assayed at various time points by addition of the fluorogenic peptide substrate 7-Amino-4-trifluoromethylcoumarin-DEVD (Ac-DEVD-AFC) (procaspases-3, -7) or Ac-VEID-AFC (procaspase-6) to a final concentration of 25 μM and analyzed by a kinetic 30 minute assay (excitation 365 nm and emission 495 nm). The final concentration of DMSO in each well is 3% and has no effect on enzyme stability or activity. […] All components of the assay including protein, substrate and inhibitor are stored as frozen aliquots and thawed immediately prior to the assay.
(§2) Tables 1 and 2. Procaspase activation as a result of incubation with compound for 5 h at 37° C. (+++ EC50˜0.5-10 μM; ++ EC50˜10-50 μM; + EC50˜50-200 μM; -no activation observed; ND not determined).

procaspase-6 = target: T2, procaspase-6 (Homo sapiens, UniProt P55212); test: Executioner procaspase-6 activation assay (Ac-VEID-AFC fluorogenic substrate); conditions: incubation with compound for 5 h at 37° C.; 100 nM procaspase
T2 sequence (P55212 1-293): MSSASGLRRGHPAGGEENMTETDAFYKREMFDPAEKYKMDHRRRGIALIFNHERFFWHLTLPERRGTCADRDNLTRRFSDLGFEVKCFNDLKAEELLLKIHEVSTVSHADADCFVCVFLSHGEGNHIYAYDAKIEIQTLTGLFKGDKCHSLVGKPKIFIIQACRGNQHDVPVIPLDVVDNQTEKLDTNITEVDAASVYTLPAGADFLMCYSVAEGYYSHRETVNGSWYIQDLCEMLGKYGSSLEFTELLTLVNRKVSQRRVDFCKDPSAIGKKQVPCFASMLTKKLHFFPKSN
Experimental: as §1, §2

procaspase-3 = target: T3, procaspase-3 (Homo sapiens, UniProt P42574); test: Executioner procaspase-3 activation assay (Ac-DEVD-AFC fluorogenic substrate)
T3 construct: His6 (C); made in house; host or cells: E. coli BL21(DE3)RP, pET-23b
T3 sequence (P42574 1-277): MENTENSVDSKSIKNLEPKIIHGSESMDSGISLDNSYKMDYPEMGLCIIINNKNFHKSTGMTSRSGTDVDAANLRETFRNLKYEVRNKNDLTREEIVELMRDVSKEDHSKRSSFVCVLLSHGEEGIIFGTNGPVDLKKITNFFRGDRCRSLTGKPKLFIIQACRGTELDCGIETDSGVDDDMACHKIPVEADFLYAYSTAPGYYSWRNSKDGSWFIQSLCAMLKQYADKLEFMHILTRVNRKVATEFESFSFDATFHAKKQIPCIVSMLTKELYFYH
Experimental: The executioner procaspase-3, -6 and -7 activation assay protocol involves incubating the target protein at the physiologically-relevant concentration of 100 nM with activating compounds (ranging from 100 nM to 100 uM) in a total volume of 50 μL consisting of a reaction buffer of 50 mM HEPES, pH 7.4, 50 mM KCl, 1 mM DTT and 0.01% Triton-X100 (to reduce false positive hits due to compound aggregation). […] All components of the assay including protein, substrate and inhibitor are stored as frozen aliquots and thawed immediately prior to the assay.

[1] = incubation with compound for 5 h at 37° C., 100 nM procaspase, read-out: Procaspase Activation 3

| EC50 (procaspase-7) | EC50 (procaspase-6) | EC50 (procaspase-3; [1]) | SMILES | EC50 (procaspase-3) |
| --- | --- | --- | --- | --- |
| > 100 µM | > 100 µM | > 100 µM | COc1cncc(-c2cccc(NC(=O)c3cc4cccc(OC)c4oc3=O)c2)c1 [compound 132, 8-Methoxy-2-oxo-2H-chromene-3-carboxylic acid [3-(5-methoxy-pyridin-3-yl)-phenyl]-amide] |  |
| > 100 µM | 50 to 200 µM | 50 to 200 µM | COc1cccc2cc(C(=O)Nc3cccc(-c4cncnc4)c3)c(=O)oc12 [compound 136, 8-Methoxy-2-oxo-2H-chromene-3-carboxylic acid (3-pyrimidin-5-yl-phenyl)-amide] |  |
| > 100 µM | > 100 µM | > 100 µM | O=C(Nc1cccc(-c2ccccc2S(=O)(=O)N2CCOCC2)c1)c1cc2cccc(OC(F)(F)F)c2oc1=O [compound 100, 8-Trifluoromethoxy-2-oxo-2H-chromene-3-carboxylic acid (2′-(Morpholine-4-sulfonyl)-biphenyl-3-yl)-amide] |  |
| > 100 µM | > 100 µM | > 100 µM | COc1cccc2cc(C(=O)Nc3cccc(-c4cccc(C#N)c4)c3)c(=O)oc12 [compound 148, 8-Methoxy-2-oxo-2′-chromene-3-carboxylic acid (3′-cyano-biphenyl-3-yl)-amide] |  |
| > 100 µM | > 100 µM | > 100 µM | N#Cc1cc(-c2cccc(NC(=O)c3cc4cccc(O)c4oc3=O)c2)ccc1F [compound 145, 8-Hydroxy-2-oxo-2H-chromene-3-carboxylic acid (3′-cyano-4′-fluoro-biphenyl-3-yl)-amide] |  |
| > 100 µM | > 100 µM | > 100 µM | COc1ncc(-c2cccc(NC(=O)c3cc4cccc(OC)c4oc3=O)c2)cn1 [compound 134, 8-Methoxy-2-oxo-2H-chromene-3-carboxylic acid [3-(2-methoxy-pyrimidin-5-yl)-phenyl]-amide] |  |
| > 100 µM | > 100 µM | > 100 µM | COc1ccc(-c2cccc(NC(=O)c3cc4cccc(O)c4oc3=O)c2)cn1 [compound 129, 8-Hydroxy-2-oxo-2H-chromene-3-carboxylic acid [3-(6-methoxy-pyridin-3-yl)-phenyl]-amide] |  |
| > 100 µM | > 100 µM | > 100 µM | COc1ccc(-c2cccc(NC(=O)c3cc4cccc(OC(F)(F)F)c4oc3=O)c2)cc1OC [compound 55, 8-Trifluoromethoxy-2-oxo-2H-chromene-3-carboxylic acid (3′,4′-Dimethoxy-biphenyl-3-yl)-amide] |  |
| > 100 µM | > 100 µM | > 100 µM | COc1cccc2cc(C(=O)Nc3cccc(-c4ccc5[nH]c(=O)[nH]c5c4)c3)c(=O)oc12 [compound 158, 8-Methoxy-2-oxo-2H-chromene-3-carboxylic acid [3-(2-oxo-2,3-dihydro-1H-benzoimidazol-5-yl)-phenyl]-amide] |  |
| > 100 µM | > 100 µM | > 100 µM | COc1ccc(OC)c(-c2cccc(NC(=O)c3cc4cccc(OC)c4oc3=O)c2)c1 [compound 57, 8-Methoxy-2-oxo-2H-chromene-3-carboxylic acid (2′,5′-dimethoxy-biphenyl-3-yl)-amide] |  |
| > 100 µM | > 100 µM | > 100 µM | O=C(Nc1cccc(-c2cnc3ccccc3c2)c1)c1cc2cccc(OC(F)(F)F)c2oc1=O [compound 85, 8-Trifluoromethoxy-2-oxo-2H-chromene-3-carboxylic acid [3-Quinolin-3-yl-phenyl]-amide] |  |
| > 100 µM | > 100 µM | > 100 µM | COc1cccc2cc(C(=O)Nc3cccc(-c4ccccc4C#N)c3)c(=O)oc12 [compound 90, 8-Methoxy-2-oxo-2H-chromene-3-carboxylic acid (2′-cyano-biphenyl-3-yl)-amide] |  |
| > 100 µM | > 100 µM | > 100 µM | O=C(Nc1cccc(-c2ccc3ccccc3c2)c1)c1cc2cccc(O)c2oc1=O [compound 80, 8-Hydroxy-2-oxo-2H-chromene-3-carboxylic acid (3-Naphthalen-2-yl-phenyl)-amide] |  |
| > 100 µM | > 100 µM | > 100 µM | COc1cccc2cc(C(=O)Nc3cccc(-c4ccccc4S(=O)(=O)N4CCOCC4)c3)c(=O)oc12 [compound 99, 8-Methoxy-2-oxo-2H-chromene-3-carboxylic acid (2′-(Morpholine-4-sulfonyl)-biphenyl-3-yl)-amide] |  |
| > 100 µM | > 100 µM | > 100 µM | O=C(Nc1cccc(-c2cnc3ccccc3c2)c1)c1cc2cccc(O)c2oc1=O [compound 83, 8-Hydroxy-2-oxo-2H-chromene-3-carboxylic acid [3-Quinolin-3-yl-phenyl]-amide] |  |
| > 100 µM | > 100 µM | > 100 µM | O=C(Nc1cccc(-c2ccc(O)nc2)c1)c1cc2cccc(O)c2oc1=O [compound 139, 8-Hydroxy-2-oxo-2H-chromene-3-carboxylic acid [3-(6-hydroxy-pyridin-3-yl)-phenyl]-amide] |  |
| 10 to 50 µM | > 100 µM | > 100 µM | O=C(Nc1cccc(-c2ccc3c(c2)OCO3)c1)c1cc2cccc(O)c2oc1=O [compound 62, 8-Hydroxy-2-oxo-2H-chromene-3-carboxylic acid (3-Benzo[1,3]dioxol-5-yl-phenyl)-amide] |  |
| > 100 µM | > 100 µM | > 100 µM | COc1cncc(-c2cccc(NC(=O)c3cc4cccc(O)c4oc3=O)c2)c1 [compound 131, 8-Hydroxy-2-oxo-2H-chromene-3-carboxylic acid [3-(5-methoxy-pyridin-3-yl)-phenyl]-amide] |  |
| > 100 µM | > 100 µM | > 100 µM | COc1cccc2cc(C(=O)Nc3cccc(-c4ccn[nH]4)c3)c(=O)oc12 [compound 156, 8-Methoxy-2-oxo-2H-chromene-3-carboxylic acid [3-(2H-pyrazol-3-yl)-phenyl]-amide] |  |
| 10 to 50 µM | > 100 µM | 10 to 50 µM | Cc1noc(C)c1-c1cccc(NC(=O)c2cc3cccc(O)c3oc2=O)c1 [compound 153, 8-Hydroxy-2-oxo-2H-chromene-3-carboxylic acid [3-(3,5-dimethyl-isoxazol-4-yl)-phenyl]-amide] |  |
| > 100 µM | > 100 µM | > 100 µM | COc1ccc(-c2cccc(NC(=O)c3cc4cccc(OC)c4oc3=O)c2)cc1OC [compound 54, 8-Methoxy-2-oxo-2H-chromene-3-carboxylic acid (3′,4′-Dimethoxy-biphenyl-3-yl)-amide] |  |
| > 100 µM | > 100 µM | > 100 µM | O=C(Nc1cccc(-c2ccc3c(c2)OCO3)c1)c1cc2cccc(OC(F)(F)F)c2oc1=O [compound 64, 8-Trifluoromethoxy-2-oxo-2H-chromene-3-carboxylic acid (3-Benzo[1,3]dioxol-5-yl-phenyl)-amide] |  |

| SMILES | EC50 (procaspase-7) | EC50 (procaspase-6) | EC50 (procaspase-3; [1]) | EC50 (procaspase-3) |
| --- | --- | --- | --- | --- |
| O=C(Nc1cccc(-c2cccc3[nH]ccc23)c1)c1cc2cccc(O)c2oc1=O [compound 167, 8-Hydroxy-2-oxo-2H-chromene-3-carboxylic acid [3-(1H-indol-4-yl)-phenyl]-amide] | > 100 µM | > 100 µM |  | > 100 µM |
